Test systems include HT29 colon; SK-MEL-2 melanoma; RXF 393 renal; MDA-MB-435; OVCAR-5 ovarian; CAKI-1 renal; UACC-257 melanoma; LOX IMVI melanoma; SK-MEL-5 melanoma; SNB-19 CNS.
Holding throughout (test): NCI anticancer screen, dose series, 48 h

The structures appear in SMILES notation.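 All cell lines were grown in 96-well plates and treated with compound for 48 hours. Abbreviation: GI50, concentration required for 50% inhibition of growth. TGI marks complete inhibition of growth.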 A value given as a limit tells only on which side of the number the result lay.

As for `O=C(CC1C=Cc2ccccc2N1C(=O)c1ccccc1)c1ccccc1` (stereo not given), the TGI with HT29 colon is 40.2 µM; in the experiment on SK-MEL-2 melanoma it was 38.8 µM; in the experiment with RXF 393 renal it was above 100 µM; in the experiment on MDA-MB-435 it was 47.8 µM; in the experiment on OVCAR-5 ovarian, above 100 µM; in the experiment with CAKI-1 renal, above 100 µM. The TGI was 61.3 µM in the experiment with UACC-257 melanoma, 67.8 µM with LOX IMVI melanoma, 30.2 µM in the experiment with SK-MEL-5 melanoma and above 100 µM in the experiment on SNB-19 CNS.
On to `CC(=O)OC1=CC2(OC(C)=O)CC(C)(C)C1C1C(=O)C=CC(=O)C12` (stereo not given), for which the TGI in the experiment with HT29 colon was 47.9 µM; in the experiment on SK-MEL-2 melanoma, above 100 µM; in the experiment with RXF 393 renal, above 100 µM; in the experiment on MDA-MB-435, 53.4 µM; with OVCAR-5 ovarian it was above 100 µM; in the experiment with CAKI-1 renal it was above 100 µM. The TGI is above 100 µM in the experiment with UACC-257 melanoma, above 56.1 µM with LOX IMVI melanoma, above 100 µM with SK-MEL-5 melanoma and above 100 µM with SNB-19 CNS.
With `CN(C)c1ccc(/C=N/S(=O)(=O)c2ccc(-n3c(-c4ccccc4)nc4c(Br)cc(Br)cc4c3=O)cc2)cc1`, the GI50 in the experiment on HT29 colon is 42.5 µM; in the experiment with SK-MEL-2 melanoma, 23.6 µM; in the experiment on RXF 393 renal, 50.2 µM; in the experiment with MDA-MB-435 it was 42 µM; in the experiment with OVCAR-5 ovarian it was above 69.5 µM; with CAKI-1 renal, 47.5 µM. For the same compound, the GI50 in the experiment on UACC-257 melanoma was 44.6 µM; in the experiment on LOX IMVI melanoma, 46.1 µM; in the experiment with SK-MEL-5 melanoma it was 15.3 µM; in the experiment on SNB-19 CNS it was 51.2 µM. For the same compound, the TGI in the experiment on HT29 colon was above 100 µM; with SK-MEL-2 melanoma, above 96.1 µM; in the experiment with RXF 393 renal, above 100 µM; in the experiment on MDA-MB-435, above 90.7 µM; in the experiment with OVCAR-5 ovarian, above 100 µM; with CAKI-1 renal, above 100 µM. The TGI was above 100 µM in the experiment with UACC-257 melanoma, above 100 µM in the experiment with LOX IMVI melanoma, 38.3 µM in the experiment on SK-MEL-5 melanoma and above 100 µM in the experiment on SNB-19 CNS.
`Cc1ccc(C2NC(=O)c3ccccc3N2)c(C)c1` (stereo not given): the TGI in the experiment with HT29 colon is 34.9 µM; with SK-MEL-2 melanoma it was 37.8 µM; with RXF 393 renal, above 76.2 µM; in the experiment with MDA-MB-435, 1.19 µM; in the experiment with OVCAR-5 ovarian it was above 86.5 µM; with CAKI-1 renal, 18.6 µM. Moreover, the TGI in the experiment on UACC-257 melanoma is above 100 µM; in the experiment with LOX IMVI melanoma, above 100 µM; in the experiment with SK-MEL-5 melanoma, above 39.5 µM; in the experiment with SNB-19 CNS, above 40.8 µM.
Turning to `CC1=Nc2c([nH]c(=S)[nH]c2=O)NC(c2c(Cl)cccc2Cl)C1` (stereo not given), the TGI in the experiment on HT29 colon was 2.35 µM; with SK-MEL-2 melanoma, 32.9 µM; in the experiment with RXF 393 renal, 9.91 µM; with MDA-MB-435, 2.88 µM; with OVCAR-5 ovarian, 11.9 µM; in the experiment with CAKI-1 renal, 14.8 µM. Besides, the TGI in the experiment on UACC-257 melanoma amounted to 9.4 µM; in the experiment with LOX IMVI melanoma it was 1.84 µM; in the experiment with SK-MEL-5 melanoma, 9.99 µM; in the experiment with SNB-19 CNS, 6.37 µM.
Consider `CC1OC(CC(=O)O)CC2=C1C(=O)c1c(O)cccc1C2=O` (stereo not given), for which the TGI came out at 0.427 µM in the experiment on HT29 colon; 1.14 µM with SK-MEL-2 melanoma; 0.103 µM in the experiment with RXF 393 renal; 0.283 µM in the experiment on MDA-MB-435; 2.86 µM in the experiment on OVCAR-5 ovarian; 0.334 µM in the experiment on CAKI-1 renal. In addition, the TGI in the experiment with UACC-257 melanoma turned out to be 0.228 µM; in the experiment on LOX IMVI melanoma, 0.111 µM; in the experiment on SK-MEL-5 melanoma, 1.15 µM; in the experiment with SNB-19 CNS, 2.98 µM.
As to `CC1SC2(CCCCC2)N(NC(=O)c2[nH]c3ccc(Br)cc3c2-c2ccccc2)C1=O` (stereo not given), the GI50 in the experiment on HT29 colon is 8.1 µM; in the experiment with SK-MEL-2 melanoma, above 100 µM; with RXF 393 renal, 13.7 µM; in the experiment on MDA-MB-435 it was 30.1 µM; in the experiment on OVCAR-5 ovarian, 58.7 µM; with CAKI-1 renal, 62.5 µM. Also, the GI50 is 23.6 µM in the experiment on UACC-257 melanoma, 92.7 µM with LOX IMVI melanoma, above 100 µM in the experiment with SK-MEL-5 melanoma and 40.8 µM in the experiment on SNB-19 CNS. For the same compound, the TGI in the experiment on HT29 colon is above 100 µM; with SK-MEL-2 melanoma, above 100 µM; in the experiment on RXF 393 renal it was 69.2 µM; with MDA-MB-435, above 100 µM; with OVCAR-5 ovarian, above 100 µM; in the experiment on CAKI-1 renal, above 100 µM. Besides, the TGI with UACC-257 melanoma, with LOX IMVI melanoma, in the experiment on SK-MEL-5 melanoma and in the experiment on SNB-19 CNS was above 100 µM in each case.
On to `O=[N+]([O-])c1cc2no[n+]([O-])c2cc1N1CCCCC1`, for which the TGI in the experiment with HT29 colon worked out at 3.86 µM; in the experiment on SK-MEL-2 melanoma, 30.5 µM; in the experiment with RXF 393 renal, 3.29 µM; in the experiment with MDA-MB-435, 9.44 µM; in the experiment with OVCAR-5 ovarian, 24.8 µM; with CAKI-1 renal, 12.5 µM. In addition, the TGI in the experiment with UACC-257 melanoma was above 36.1 µM; in the experiment on LOX IMVI melanoma it was 4.81 µM; with SK-MEL-5 melanoma it was 41.7 µM; in the experiment with SNB-19 CNS it was 35.5 µM.
`CCSC[C@@H]1C[C@](O)(c2ccc(F)cc2)[C@@H](c2ccc(F)cc2)O1`: the GI50 in the experiment on HT29 colon was 14.1 µM; in the experiment with SK-MEL-2 melanoma it was 19.8 µM; with RXF 393 renal, 20.2 µM; with MDA-MB-435 it was 17.7 µM; in the experiment on OVCAR-5 ovarian, 20.2 µM; in the experiment with CAKI-1 renal, 18.2 µM. Further, the GI50 in the experiment on UACC-257 melanoma was 16.1 µM; in the experiment with LOX IMVI melanoma, 17.3 µM; with SK-MEL-5 melanoma it was 14.8 µM; in the experiment on SNB-19 CNS it was 16.6 µM. The TGI with HT29 colon came to 27.7 µM; with SK-MEL-2 melanoma it was 42 µM; with RXF 393 renal, 45.7 µM; in the experiment on MDA-MB-435 it was 37.8 µM; in the experiment with OVCAR-5 ovarian it was 37.9 µM; in the experiment with CAKI-1 renal it was 39.7 µM. Moreover, the TGI with UACC-257 melanoma was 32.7 µM; in the experiment with LOX IMVI melanoma, 32.2 µM; in the experiment on SK-MEL-5 melanoma it was 28 µM; with SNB-19 CNS it was 31.1 µM.

The values above are taken from PubChem BioAssay (NCI).
